Experimental data published in US20130096067A1, “DROSOPHILA TUMOR STEM CELL MODEL AND USES THEREOF” (priority 2011, published 2013).
Like-named read-outs stand apart in the source and are kept apart here.

System: Raf-1^gof intestinal tumors
[1] = ICCB compounds fed in vials to flies with one-day old Raf-1^gof tumors, assessed three days later
[2] = ICCB compounds fed in vials to flies with one-day old Raf-1^gof tumors, assessed three days later, averaged from multiple wells
[3] = screen of 480 ICCB compounds in vials, compounds fed to flies with one-day old Raf-1^gof tumors, assessed three days later, esg-Gal4 luciferase
[4] = screen of 480 ICCB compounds in vials, compounds fed to flies with one-day old Raf-1^gof tumors, assessed three days later, esg-Gal4 luciferase, averaged from multiple wells
Throughout, for Fold (luciferase activity relative to DMSO controls): test concentration or dose not given here.
Throughout, for Fold (luciferase activity, fold difference relative to DMSO controls): test concentration or dose not given here.
Throughout, for Log2 (fold) (luciferase activity, log2 of the fold difference relative to DMSO controls): test concentration or dose not given here.
Throughout, for Log2 (fold) of luciferase activity relative to DMSO controls: test concentration or dose not given here.

Row | Molecule | Log2 (fold) of luciferase activity relative to DMSO controls [1] | Fold (luciferase activity relative to DMSO controls) [2] | Log2 (fold) (luciferase activity, log2 of the fold difference relative to DMSO controls) [3] | Fold (luciferase activity, fold difference relative to DMSO controls) [4] | also measured
1 | CC[C@@]1(O)C(=O)OCc2c1cc1n(c2=O)Cc2cc3ccccc3nc2-1 [camptothecin, reference compound] | – | – | – | – | Log2 (fold) (Table 3 summary of hits, Screen ICCB): −1.619
2 | O=C(O)CCC/C=C\C[C@@H]1[C@@H](/C=C/[C@@H](O)COc2cccc(C(F)(F)F)c2)[C@H](O)C[C@@H]1O (racemic) [FLUPROSTENOL] | 0.058 | 1.041 fold | – | – | –
3 | CC(=O)OCOC(=O)CN(CC(=O)OCOC(C)=O)c1ccccc1OCCOc1ccccc1N(CC(=O)OCOC(C)=O)CC(=O)OCOC(C)=O [BAPTA-AM] | – | – | −0.242 | 0.846 | –
4 | OC[C@H]1NC[C@H](O)[C@@H](O)[C@@H]1O [deoxynorjrimycin(1)] | −0.154 | 0.899 fold | – | – | –
5 | CCOC(=O)CN1C(=O)CC(C[C@@H](O)[C@@H]2C[C@@H](C)C[C@H](C)C2=O)CC1=O [cycloheximide-N-ethylethanoate] | −0.014 | 0.990 fold | – | – | –
6 | MDL-28170 | – | – | −0.617 | 0.652 | –
7 | O=C(NCCCCCCNC(=O)ON=C1CCCCC1)ON=C1CCCCC1 [RHC-80267] | – | – | −0.279 | 0.824 | –
8 | CC(C)C[C@@H](/C=C/S(C)(=O)=O)NC(=O)[C@H](CC(C)C)NC(=O)[C@H](CC(C)C)NC(=O)OCc1ccccc1 [ZL3VS] | – | – | −0.513 | 0.701 | –
9 | O=C(O)CCC/C=C\C[C@H]1C(=O)C[C@@H](O)[C@@H]1/C=C/[C@@H](O)CCc1ccccc1 [17-PHENYL-TRINOR-PGE2] | – | – | −0.253 | 0.839 | –
10 | CC(C)(C)c1cc(/C=C(\C#N)C(N)=S)cc(C(C)(C)C)c1O [AG-879] | 0.902 | 1.869 fold | – | – | –
11 | CC(/C=C/C(=O)NO)=C\[C@@H](C)C(=O)c1ccc(N(C)C)cc1 [trichostatin-A] | −0.109 | 0.927 fold | – | – | –
12 | CCCCCCCCCCCCCCC[C@@H](O)[C@H](CO)NC(=O)CCCCCCC [C8 DIHYDROCERAMIDE] | – | – | −0.423 | 0.746 | –
13 | COc1ccc(CCN(C)CCCC(C#N)(c2ccc(OC)c(OC)c2)C(C)C)cc1OC (stereo not shown) | – | – | – | – | Fold (luciferase activity, fold difference relative to DMSO controls) (in vivo): 0.838; Log2 (fold) (luciferase activity, log2 of the fold difference relative to DMSO controls) (in vivo): −0.255
14 | C=C[C@H]1C[N@@]2CC[C@H]1C[C@@H]2[C@@H](O)c1ccnc2ccc(OC)cc12 [QUINIDINE] | – | – | −0.351 | 0.784 | –
15 | N=C(N)NC(=O)c1nc(Cl)c(N)nc1N [AMILORIDE] | −0.041 | 0.972 fold | – | – | –
16 | CCCCCCCCCCCC=CCC=CCCCC(=O)O [EICOSA-5,8-DIENOIC ACID (20:2 n-12)] | −0.149 | 0.902 fold | – | – | –
17 | CCCCC/C=C/C=C1/C(=O)C=C[C@@H]1C/C=C\CCCC(=O)O [15d-Prostaglandin J2] | 0.294 | 1.226 fold | – | – | –
18 | OCCN(CCO)c1nc(N2CCCCC2)c2nc(N(CCO)CCO)nc(N3CCCCC3)c2n1 [dipyridamole] | – | – | −0.431 | 0.742 | –
19 | C=C1/C(=C\C=C2/CCC[C@]3(C)[C@@H]([C@H](C)CCCC(C)(C)O)CC[C@@H]23)C[C@@H](O)C[C@@H]1O [1,25-DIHYDROXYVITAMIN D3] | 0.677 | 1.599 fold | – | – | –
20 | CCCCC[C@H](O)C/C=C1/C(=O)C=C[C@@H]1C/C=C\CCCC(=O)O [D12-PROSTAGLANDIN J2] | – | – | – | – | Fold (luciferase activity relative to DMSO controls) (in vivo): 0.988 fold; Log2 (fold) of luciferase activity relative to DMSO controls (in vivo): −0.017
21 | O=S(=O)(c1cccc2cnccc12)N1CCCNCC1 [HA1077] | – | – | −0.326 | 0.798 | –
22 | COc1cc2ncnc(Nc3cccc(Cl)c3)c2cc1OC [AG1478] | – | – | −0.655 | 0.635 | –
23 | CCCCCCCCCCCCC/C=C/[C@@H](O)[C@H](CO)NC(C)=O [C2 CERAMIDE] | – | – | −0.493 | 0.711 | –

Row | Molecule | Log2 (fold) of luciferase activity relative to DMSO controls [1] | Fold (luciferase activity relative to DMSO controls) [2] | Log2 (fold) (luciferase activity, log2 of the fold difference relative to DMSO controls) [3] | Fold (luciferase activity, fold difference relative to DMSO controls) [4] | also measured
24 | COc1cc(-c2ccc(=O)[nH]n2)ccc1OC(F)F [zardaverine] | 0.145 | 1.106 fold | – | – | –
25 | CCCCC/C=C\C[C@@H](/C=C/C=C\C/C=C\CCCC(=O)O)OO [12(S)-HPETE] | – | – | −0.571 | 0.673 | –
26 | CC(=O)c1c(O)c(C)c(O)c(Cc2c(O)c3c(c(C(=O)/C=C/c4ccccc4)c2O)OC(C)(C)C=C3)c1O [Rottlerin] | – | – | −0.865 | 0.549 | –
27 | [Cl-].c1ccc2c(c1)[I+]c1ccccc1-2 [diphenyleneiodonium Cl] | – | – | −0.576 | 0.671 | –
28 | CCCCCCCCCC(=O)OCC(CO)OC(=O)CCCCCCCCC (stereo not shown) [1,2-DIDECANOYL-GLYCEROL (10:0)] | 0.310 | 1.240 fold | – | – | –
29 | CN1C(=O)[C@]23CC4=CC=C[C@H](O)[C@H]4N2C(=O)[C@@]1(CO)SS3 [Gliotoxin] | – | – | −0.478 | 0.718 | –
30 | CC1(O)CC23CC(O)C4(O)C(CC(O)C4(C)C)C(C)(O)C2CCC1C3O (stereo not shown) [GR[…]] | – | – | −0.553 | 0.682 | –
31 | COC(=O)C1=C(C)NC(C)=C(C(=O)OCCCN2CCC(c3ccccc3)(c3ccccc3)CC2)[C@H]1c1cccc([N+](=O)[O-])c1 [NIGULDIPINE] | – | – | – | – | Fold (luciferase activity, fold difference relative to DMSO controls) (in vivo): 0.812; Log2 (fold) (luciferase activity, log2 of the fold difference relative to DMSO controls) (in vivo): −0.301
32 | O=S(=O)(c1cccc2c(Cl)cccc12)N1CCCNCC1 [ML9] | – | – | −0.458 | 0.728 | –
33 | CC1=C(/C=C/C(C)=C/C=C/C(C)=C\C(=O)O)C(C)(C)CCC1 [13-CIS RETINOIC ACID] | 0.074 | 1.053 fold | – | – | –
34 | CCCCCCCCCCCCC/C=C/[C@@H](O)[C@H](CO)NCCCCCCCC [C8 CERAMINE] | – | – | −0.302 | 0.811 | –
35 | C[C@H](CCC(=O)O)C[C@H](C)C[C@H](C)C(=O)/C=C(\O)[C@H](C)C[C@H](C)C/C=C/[C@@H](C)[C@@H](O)[C@@H](C)[C@@H](O)C[C@@H]1CC[C@@](C)([C@H]2CC[C@@](C)([C@@H](C)O)O2)O1 [ionomycin] | – | – | −0.591 | 0.664 | –
36 | N#Cc1cc2c(OCC(O)CN3CCN(C(c4ccccc4)c4ccccc4)CC3)cccc2[nH]1 (stereo not shown) [SDZ-201106] | – | – | – | – | Fold (luciferase activity, fold difference relative to DMSO controls) (in vivo): 0.804; Log2 (fold) (luciferase activity, log2 of the fold difference relative to DMSO controls) (in vivo): −0.315
37 | CCN(CC)CC(=O)Nc1c(C)cccc1C [LIDOCAINE] | 0.049 | 1.035 fold | – | – | –
38 | CCCCC/C=C\CC1OC1C/C=C\C/C=C\CCCC(=O)O (stereo not shown) [11,12-EPOXYEICOSATRIENOIC ACID] | −0.052 | 0.965 fold | – | – | –
39 | COc1ccc(CCN(C)CCc2ccc(OC)c(OC)c2)cc1OC [YS035] | −0.152 | 0.900 fold | – | – | –
40 | C[C@@H]1C[C@H]2[C@@H]3CCC4=CC(=O)C=C[C@]4(C)[C@@]3(F)[C@@H](O)C[C@]2(C)[C@@]1(O)C(=O)CO [dexamethasone] | – | – | −0.245 | 0.844 | –
41 | O=C(/C=C/c1ccc(O)c(O)c1)OCCc1ccccc1 [CAPE] | – | – | −0.324 | 0.799 | –
42 | CCCCCC[C@@H]([C@@H](C)O)n1cnc2c(N)ncnc21.Cl [EHNA HCl] | – | – | −0.312 | 0.805 | –
43 | O=c1c(-c2ccc(O)cc2)coc2cc(O)cc(O)c12 [genistein] | – | – | −0.275 | 0.826 | –
44 | CCCCCCCCCCCCCCC[C@@H](O)[C@@H](N)CO [DIHYDROSPHINGOSINE] | 0.000 | 1.000 fold | – | – | –
45 | NC(=NCc1ccccc1)NC(=O)c1nc(Cl)c(N)nc1N [BENZAMIL] | 0.006 | 1.004 fold | – | – | –
46 | CCCCC[C@H](O)/C=C/[C@@H]1[C@H]2C/C(=C/CCCC(=O)O)C[C@H]2C[C@H]1O [CARBACYCLIN] | – | – | −0.283 | 0.822 | –
